Measured values taken from patent US20170197985A1, “SODIUM (2R,5S,13AR)-7,9-DIOXO-10-((2,4,6-TRIFLUOROBENZYL)CARBAMOYL)-2,3,4,5,7,9,13,13A-OCTAHYDRO-2,5-METHANOPYRIDO[1',2':4,5]PYRAZINO[2,1-B][1,3]OXAZEPIN-8-OLATE” (Gilead Sciences, Inc., priority 2014, published 2017).

Columns and labels:
[1] = Bioavailability after a single oral tablet in beagle dogs (plasma LC/MS/MS, non-compartmental PK); format: in vivo; details: dog, male beagle dogs, fasted, pentagastrin pre-treated, single 25 mg strength tablet (dry granulation, 30% active); for bioavailability: read-out: % F (oral bioavailability)
From the text: The bioavailability of sodium (2R,5S,13aR)-7,9-dioxo-10-((2,4,6-trifluorobenzyl)carbamoyl)-2,3,4,5,7,9,13,13a-octahydro-2,5-methanopyrido[1′,2′:4,5]pyrazino[2,1-b][1,3]oxazepin-8-olate (Formula II) Form I was compared to the bioavailability of (2R,5S,13aR)-8-hydroxy-7,9-dioxo-N-(2,4,6-trifluorobenzyl)-2,3,4,5,7,9,13,13a-octahydro-2,5-methanopyrido[1′,2′:4,5]pyrazino[2,1-b][1,3]oxazepine-10-carboxamide (Formula I) Form III.
Each dosing group consisted of 6 male, non-naïve purebred beagle dogs. At dosing, the animals weighed between 10 to 13 kg. The animals were fasted overnight prior to dose administration and up to 4 hr after dosing. Each subject was pre-treated with pentagastrin (6 μg/kg) and dosed 30 minutes later with a single 25 mg strength tablet of Formula II Form I or Formula I Form III. Each subject was given 10 mL of water to aid in swallowing.
Serial venous blood samples (approximately 1 mL each) were taken from each animal at 0, 0.250, 0.483, 0.583, 0.750, 1.00, 1.50, 2.00, 4.00, 8.00, 12.0, and 24.0 hours after dosing. The blood samples were collected into Vacutainer™ tubes containing EDTA-K2 as the anti-coagulant and were immediately placed on wet ice pending centrifugation for plasma. An LC/MS/MS method was used to measure the concentration of the test compound in plasma. An aliquot of 100 μL of each plasma sample was added to a clean 96 well plate, and 400 μL of cold acetonitrile/internal standard solution (ACN)/(ISTD) was added. After protein precipitation, an aliquot of 110 μL of the supernatant was transferred to a clean 96-well plate and diluted with 300 μL of water. An aliquot of 25 μL of the above solution was injected into a TSQ Quantum Ultra LC/MS/MS system utilizing a Hypersil Gold C18 HPLC column (50×3.0 mm, 5 μm; Thermo-Hypersil Part #25105-053030). An Agilent 1200 series binary pump (P/N G1312A Bin Pump) was used for elution and separation, and an HTS Pal autosampler (LEAP Technologies, Carrboro, N.C.) was used for sample injection. A TSQ Quantum Ultra triple quadrupole mass spectrometer was utilized in selective reaction monitoring mode (Thermo Finnigan, San Jose, Calif.). Liquid chromatography was performed using two mobile phases: mobile phase A contained 1% acetonitrile in 2.5 mM ammonium formate aqueous solution with pH of 3.0, and mobile phase B contained 90% acetonitrile in 10 mM ammonium formate with pH of 4.6. Non-compartmental pharmacokinetic analysis was performed on the plasma concentration-time data. The resulting data are shown in Table 3: F (%) refers to oral bioavailability; AUC refers to area under the curve and is a measure of total plasma exposure of the indicated compound; Cmax refers to the peak plasma concentration of the compound after administration.

HIV = details: as discussed in co-pending U.S. Ser. No. 14/133,855 and PCT US2013/076367; cited from earlier work
[2] = Stability on storage under accelerated conditions (% AN, % LS); format: physicochemical
Method: The stability of sodium (2R,5S,13aR)-7,9-dioxo-10-((2,4,6-trifluorobenzyl)carbamoyl)-2,3,4,5,7,9,13,13a-octahydro-2,5-methanopyrido[1′,2′:4,5]pyrazino[2,1-b][1,3]oxazepin-8-olate Form I was tested. […] In Table 5, AN refers to area normalization and is the relative peak area of the active with respect to other impurities and components contained in the sample. LS refers to labile strength and is the amount of active present relative to the theoretical amount.

O=C(NCc1c(F)cc(F)cc1F)c1cn2c(c(O)c1=O)C(=O)N1[C@H]3CC[C@H](C3)O[C@@H]1C2 [Formula I Form III, (2R,5S,13aR)-8-hydroxy-7,9-dioxo-N-(2,4,6-trifluorobenzyl)-2,3,4,5,7,9,13,13a-octahydro-2,5-methanopyrido[1′,2′:4,5]pyrazino[2,1-b][1,3]oxazepine-10-carboxamide]
AUC(0-t) [1]: 27 ± 13 µM·h
Cmax [1]: 6 ± 2 µM
bioavailability [1]: 10 ± 6%

O=C(NCc1c(F)cc(F)cc1F)c1cn2c(c(O)c1=O)C(=O)N1[C@H]3CC[C@H](C3)O[C@@H]1C2 [Formula I, (2R,5S,13aR)-8-hydroxy-7,9-dioxo-N-(2,4,6-trifluorobenzyl)-2,3,4,5,7,9,13,13a-octahydro-2,5-methanopyrido[1′,2′:4,5]pyrazino[2,1-b][1,3]oxazepine-10-carboxamide]
anti-viral activity (in words) (HIV): demonstrates anti-viral activity

O=C(NCc1c(F)cc(F)cc1F)c1cn2c(c([O-])c1=O)C(=O)N1[C@H]3CC[C@H](C3)O[C@@H]1C2.[Na+] [Formula II Form I, sodium (2R,5S,13aR)-7,9-dioxo-10-((2,4,6-trifluorobenzyl)carbamoyl)-2,3,4,5,7,9,13,13a-octahydro-2,5-methanopyrido[1′,2′:4,5]pyrazino[2,1-b][1,3]oxazepin-8-olate]
AUC(0-t) [1]: 71 ± 16 µM·h
Cmax [1]: 13 ± 1 µM
bioavailability [1]: 28 ± 7%
% AN (area normalization) ([2]; 25° C./60% RH (open), 1 week): 95.0 ± 0.2%
% LS (labile strength) ([2]; 25° C./60% RH (open), 1 week): 104.8 ± 0.1%
% AN (area normalization) ([2]; 25° C./60% RH (open), 2 weeks): 94.4 ± 0.1%
% LS (labile strength) ([2]; 25° C./60% RH (open), 2 weeks): 101.6 ± 0.1%
% AN (area normalization) ([2]; 25° C./60% RH (open), 4 weeks): 94.4 ± 0.0%
% LS (labile strength) ([2]; 25° C./60% RH (open), 4 weeks): 103.0 ± 0.8%
% AN (area normalization) ([2]; 40° C. (closed), 1 week): 95.2 ± 0.3%
% LS (labile strength) ([2]; 40° C. (closed), 1 week): 108.0 ± 0.2%
% AN (area normalization) ([2]; 40° C. (closed), 2 weeks): 94.4 ± 0.1%
% LS (labile strength) ([2]; 40° C. (closed), 2 weeks): 102.4 ± 0.1%
% AN (area normalization) ([2]; 40° C. (closed), 4 weeks): 94.4 ± 0.0%
% LS (labile strength) ([2]; 40° C. (closed), 4 weeks): 97.0 ± 0.0%
% AN (area normalization) ([2]; 40° C./75% RH (open), 1 week): 94.9 ± 0.1%
% LS (labile strength) ([2]; 40° C./75% RH (open), 1 week): 103.3 ± 6.9%
% AN (area normalization) ([2]; 40° C./75% RH (open), 2 weeks): 94.4 ± 0.0%
% LS (labile strength) ([2]; 40° C./75% RH (open), 2 weeks): 108.5 ± 0.4%
% AN (area normalization) ([2]; 40° C./75% RH (open), 4 weeks): 94.4 ± 0.0%
% LS (labile strength) ([2]; 40° C./75% RH (open), 4 weeks): 102.9 ± 0.1%
% AN (area normalization) ([2]; Starting material, 0 weeks): 94.4 ± 0.1%
% LS (labile strength) ([2]; Starting material, 0 weeks): 99.8 ± 0.1%
Stability (in words) ([2]; after four weeks of storage under accelerated conditions): stable
